The results in this text go back to US10072025B2, “Ethyl N-boc piperidinyl pyrazolo pyridones as Janus kinase inhibitors” (Merck Sharp & Dohme Corp., priority 2014, dated 2018).

As a reminder, the pIC50 is the IC50 on a negative log10 scale, so that one unit is a factor of ten.

For one experiment, the target named is JAK1 (Homo sapiens (Human), UniProt P23458). Briefly: Jak Biochemical HTRF Assay (JAK1). The conditions noted are these: recombinant purified GST-tagged catalytic domain; HTRF; [ATP] 31.8 μM; [E] 1.405 nM. As to the method:
(§1) Jak Biochemical HTRF Assay Protocol
(§2) The ability of compounds to inhibit the activity of JAK1, JAK2, JAK3, and Tyk2 was measured using a recombinant purified GST-tagged catalytic domain for each enzyme (Invitrogen JAK1 #M4290, JAK2 #M4290, JAK3 #M4290, Tyk2 #M4290) in an HTRF format biochemical assay. […] The basic assay protocol is as follows: First, 250 nL of diluted compounds in DMSO were dispensed into the wells of a dry 384-well Black plate (Greiner #781076) using a Labcyte Echo 555 acoustic dispenser. Subsequent reagent additions employed an Agilent Bravo. Next, 18 μL of 1.11× enzyme and 1.11× substrate in 1× assay buffer (Invitrogen kinase buffer # PV3189, 2 mM DTT, 0.05% BSA) were added to the wells and shaken and then preincubated for 30 minutes at room temperature to allow compound binding to equilibrate. After equilibration, 2 μL of 10×ATP in 1× assay buffer was added to initiate the kinase reaction and the plates were shaken and then incubated at room temperature for 120 minutes. At the end of the incubation, 20 μL of 2× stop buffer (streptavidin-Dylight 650 (Thermo #84547B/100 mL), Eu-tagged pY20 antibody (Perkin Elmer #AD0067), EDTA, HEPES, and Triton) was added to quench the reaction. Plates were shaken and centrifuged and then incubated 60 minutes at room temperature and then read on a Perkin Elmer Envision (Xex=337 nm, λem=665 and 615 nm, TRF delay time=20 μs). HTRF signal=10,000*665 nm reading/615 nm reading. After normalization to untreated controls, the percent inhibition of the HTRF signal at each compound concentration was calculated. The plot of percent inhibition versus the log of compound concentration was fit with a 4-parameter dose response equation to calculate IC50 values.

The next experiment has as its target JAK2 (Homo sapiens (Human), UniProt O60674). Briefly: Jak Biochemical HTRF Assay (JAK2). The conditions noted are these: recombinant purified GST-tagged catalytic domain, [ATP] 8.5 μM, [E] 0.052 nM. The protocol: as §1, §2

pIC50: −log10 of the molar value.

Sequence of JAK2 (O60674 849-1124): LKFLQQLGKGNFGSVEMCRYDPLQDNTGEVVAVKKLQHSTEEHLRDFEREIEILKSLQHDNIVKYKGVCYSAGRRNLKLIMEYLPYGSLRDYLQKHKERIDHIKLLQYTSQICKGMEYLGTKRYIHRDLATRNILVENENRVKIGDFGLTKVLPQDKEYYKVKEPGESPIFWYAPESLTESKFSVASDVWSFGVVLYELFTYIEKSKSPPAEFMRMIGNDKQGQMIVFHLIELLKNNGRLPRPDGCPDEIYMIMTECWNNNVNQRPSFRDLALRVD
Sequence of JAK1 (P23458 875-1153): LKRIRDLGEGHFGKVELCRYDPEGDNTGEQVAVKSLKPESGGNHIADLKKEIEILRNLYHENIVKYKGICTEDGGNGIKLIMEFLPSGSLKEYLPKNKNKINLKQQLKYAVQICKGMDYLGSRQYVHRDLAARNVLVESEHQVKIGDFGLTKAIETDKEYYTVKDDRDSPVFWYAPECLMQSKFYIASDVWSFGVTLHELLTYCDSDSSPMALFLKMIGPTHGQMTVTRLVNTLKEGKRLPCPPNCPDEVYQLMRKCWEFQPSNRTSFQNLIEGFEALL

For `CCC1(n2nc(Nc3ccc(C(=O)N4CCC(F)(F)CC4)c(C)c3)c3c(=O)[nH]ccc32)CCN(C(=O)OC(C)(C)C)CC1` [Example 2-26, tert-butyl 4-(3-(4-(4,4-difluoropiperidine-1-carbonyl)-3-methylphenylamino)-4-oxo-4,5-dihydropyrazolo [4,3-c]pyridin-1-yl)-4-ethylpiperidine-1-carboxylate], the pIC50 at JAK1 was 8.92; at JAK2, 8.84.

With `CCC1(n2nc(Nc3ccc(S(=O)(=O)N(C)C)cc3)c3c(=O)[nH]ccc32)CCN(C(=O)OC(C)(C)C)CC1` [Example 1-1, tert-butyl 4-(3-(4-(N,N-dimethylsulfamoyl)phenylamino)-4-oxo-4,5-dihydropyrazolo[4,3-c]pyridin-1-yl)-4-ethylpiperidine-1-carboxylate], the pIC50 was 9.70 at JAK1 and 9.40 on JAK2.

For the compound `CCC1(n2nc(Nc3ccc(C(=O)N4CCOC[C@H]4C)c(C)c3)c3c(=O)[nH]ccc32)CCN(C(=O)OC(C)(C)C)CC1` [Example 2-28, (R)-tert-butyl-4-ethyl-4-(3-(3-methyl-4-(3-methylmorpholine-4-carbonyl)phenylamino)-4-oxo-4,5-dihydropyrazolo[4,3-c]pyridin-1-yl) piperidine-1-carboxylate], the negative logarithm of the IC50 (pIC50) on JAK1 is 9.27; at JAK2, 9.29.

With `CCC1(n2nc(Nc3ccc(C(=O)N4C[C@H]5C[C@@H]4CO5)c(C)c3)c3c(=O)[nH]ccc32)CCN(C(=O)OC(C)(C)C)CC1` [Example 2-15, tert-butyl 4-(3-((4-((1R,4R)-2-oxa-5-azabicyclo[2.2.1]heptane-5-carbonyl)-3-methylphenyl)amino)-4-oxo-4,5-dihydro-1H-pyrazolo[4,3-c]pyridin-1-yl)-4-ethylpiperidine-1-carboxylate], the pIC50 at JAK1 is 9.40; on JAK2, 9.37.

As for `CCC1(n2nc(Nc3ccc(C(C)(OC)C(F)(F)F)cc3)c3c(=O)[nH]ccc32)CCN(C(=O)OC(C)(C)C)CC1` (stereo not shown) [Example 2-41], the pIC50 was 8.36 on JAK1 and 8.16 on JAK2.

With `CCC1(n2nc(Nc3ccc(C(=O)N4CCOC5CC54)c(C)c3)c3c(=O)[nH]ccc32)CCN(C(=O)OC(C)(C)C)CC1` (stereo not shown) [Example 3-21, tert-butyl 4-ethyl-4-(3-{[3-methyl-4-(2-oxa-5-azabicyclo [4.1.0]hept-5-ylcarbonyl)phenyl]amino}-4-oxo-4,5-dihydro-1H-pyrazolo [4,3-c]pyridin-1-yl) piperidine-1-carboxylate], the results for the pIC50 at JAK1 and on JAK2 were 8.77 and 8.87, respectively.

As for `CCC1(n2nc(Nc3ccc(C(=O)N4CCOCC4(C)C)c(C)c3)c3c(=O)[nH]ccc32)CCN(C(=O)OC(C)(C)C)CC1` [Example 3-5, tert-butyl 4-[3-({4-[(3,3-dimethylmorpholin-4-yl)carbonyl]-3-methylphenyl}amino)-4-oxo-4,5-dihydro-1H-pyrazolo[4,3-c]pyridin-1-yl]-4-ethylpiperidine-1-carboxylate], the results for the pIC50 on JAK1 and on JAK2 were 9.14 and 8.92, respectively.

Regarding `CCc1cc(Nc2nn(C3(CC)CCN(C(=O)OC(C)(C)C)CC3)c3cc[nH]c(=O)c23)ccc1C(=O)N1CCOCC1` [Example 2-24, tert-butyl 4-ethyl-4-(3-((3-ethyl-4-(morpholine-4-carbonyl)phenyl)amino)-4-oxo-4,5-dihydro-1H-pyrazolo[4,3-c]pyridin-1-yl) piperidine-1-carboxylate], the pIC50 on JAK1 was 9.33; at JAK2, 9.08.

Take `CCC1(n2nc(Nc3ccc(C4CCN(C)CC4)cc3)c3c(=O)[nH]ccc32)CCN(C(=O)OC(C)(C)C)CC1` [Example 2-4, tert-butyl 4-ethyl-4-(3-(4-(1-methylpiperidin-4-yl)phenylamino)-4-oxo-4,5-dihydropyrazolo[4,3-c]pyridin-1-yl) piperidine-1-carboxylate]: the negative logarithm of the IC50 (pIC50) at JAK1 is 9.43; on JAK2, 9.25.

Take `CCC1(n2nc(Nc3ccc(C(=O)N4CCC(N5CCSCC5)CC4)c(C)c3)c3c(=O)[nH]ccc32)CCN(C(=O)OC(C)(C)C)CC1` [Example 3-12, tert-butyl 4-ethyl-4-[3-({3-methyl-4-[(4-thiomorpholin-4-ylpiperidin-1-yl)carbonyl]phenyl}amino)-4-oxo-4,5-dihydro-1H-pyrazolo[4,3-c]pyridin-1-yl] piperidine-1-carboxylate]: the results for the pIC50 at JAK1 and at JAK2 were 9.25 and 9.17, respectively.

Regarding `CCC1(n2nc(Nc3ccc4c(c3)CN(C(C)(C)C)S4(=O)=O)c3c(=O)[nH]ccc32)CCN(C(=O)OC(C)(C)C)CC1` [Example 1-2], the results for the pIC50 on JAK1 and at JAK2 were 8.54 and 8.47, respectively.

Regarding `CCC1(n2nc(Nc3ccc(S(C)(=O)=O)cc3)c3c(=O)[nH]ccc32)CCN(C(=O)OC(C)(C)C)CC1` [Example 1-3, tert-butyl 4-ethyl-4-(3-(4-(methylsulfonyl)phenyl-amino)-4-oxo-4,5-dihydropyrazolo[4,3-c]pyridin-1-yl)piperidine-1-carboxylate], the pIC50 on JAK1 is 9.92; at JAK2, 9.19.

Turning to `CCC1(n2nc(Nc3ccc(C(=O)N4CC[S+]([O-])CC4)c(C)c3)c3c(=O)[nH]ccc32)CCN(C(=O)OC(C)(C)C)CC1` [Example 3-11, tert-butyl 4-ethyl-4-[3-({3-methyl-4-[(1-oxidothiomorpholin-4-yl)carbonyl]phenyl}amino)-4-oxo-4,5-dihydro-1H-pyrazolo[4,3-c]pyridin-1-yl]piperidine-1-carboxylate], the pIC50 at JAK1 is 9.72; at JAK2, 9.60.

With `CCC1(n2nc(Nc3ccc(C(=O)O)c(C)c3)c3c(=O)[nH]ccc32)CCN(C(=O)OC(C)(C)C)CC1` [Example 2-44, 4-((1-(1-(tert-butoxycarbonyl)-4-ethylpiperidin-4-yl)-4-oxo-4,5-dihydro-1H-pyrazolo [4,3-c]pyridin-3-yl)amino)-2-methylbenzoic acid], the pIC50 at JAK1 is 9.64; on JAK2, 8.68.

Take `CCC1(n2nc(Nc3ccc([C@@]4(C(F)(F)F)CCCN4)cc3)c3c(=O)[nH]ccc32)CCN(C(=O)OC(C)(C)C)CC1` (single isomer, unassigned) [Example 2-34, (R or S)-tert-butyl 4-ethyl-4-(4-oxo-3-(4-(2-(trifluoromethyl)pyrrolidin-2-yl)phenylamino)-4,5-dihydropyrazolo[4,3-c]pyridin-1-yl) piperidine-1-carboxylate]: the pIC50 at JAK1 and at JAK2 was 8.60 in each case.

Turning to `CCC1(n2nc(Nc3ccc(C(=O)N4CCSCC4)c(C(F)F)c3)c3c(=O)[nH]ccc32)CCN(C(=O)OC(C)(C)C)CC1` [Example 2-25, tert-butyl 4-(3-(3-(difluoromethyl)-4-(thiomorpholine-4-carbonyl)phenylamino)-4-oxo-4,5-dihydropyrazolo[4,3-c]pyridin-1-yl)-4-ethylpiperidine-1-carboxylate], the results for the pIC50 at JAK1 and on JAK2 were 8.76 and 8.55, respectively.

For `CCC1(n2nc(Nc3ccc(C(=O)N4CCO[C@@H](C)C4)c(C)c3)c3c(=O)[nH]ccc32)CCN(C(=O)OC(C)(C)C)CC1` [Example 2-8, (5)-tert-butyl-4-ethyl-4-(3-(3-methyl-4-(2-methylmorpholine-4-carbonyl)phenylamino)-4-oxo-4,5-dihydropyrazolo[4,3-c]pyridin-1-yl) piperidine-1-carboxylate], the pIC50 on JAK1 is 9.21; on JAK2 it was 9.24.

Regarding `CCC1(n2nc(Nc3ccc4c(c3)CN(C3CCOCC3)S4(=O)=O)c3c(=O)[nH]ccc32)CCN(C(=O)OC(C)(C)C)CC1` [Example 2-5, tert-butyl 4-ethyl-4-(3-{[2-(oxan-4-yl)-1,1-dioxo-2,3-dihydro-1,2-benzothiazol-5-yl]amino}-4-oxo-1H,4H,5H-pyrazolo [4,3-c]pyridin-1-yl) piperidine-1-carboxylate], the pIC50 is 9.27 on JAK1 and 9.22 at JAK2.

`CCC1(n2nc(Nc3ccc(C(=O)N4CCOCC4)c(F)c3)c3c(=O)[nH]ccc32)CCN(C(=O)OC(C)(C)C)CC1` [Example 2-12, tert-butyl 4-ethyl-4-(3-((3-fluoro-4-(morpholine-4-carbonyl)phenyl)amino)-4-oxo-4,5-dihydro-1H-pyrazolo[4,3-c]pyridin-1-yl) piperidine-1-carboxylate]: the pIC50 at JAK1 is 9.25; on JAK2 it was 9.13.

`CCC1(n2nc(Nc3ccc(C(=O)N4CCOC[C@@H]4C)c(C)c3)c3c(=O)[nH]ccc32)CCN(C(=O)OC(C)(C)C)CC1` [Example 2-6, (S)-tert-butyl 4-ethyl-4-(3-((3-methyl-4-(3-methylmorpholine-4-carbonyl)phenyl)amino)-4-oxo-4,5-dihydro-1H-pyrazolo[4,3-c]pyridin-1-yl) piperidine-1-carboxylate]: the pIC50 at JAK1 and at JAK2 was 9.29 in each case.
